Assay results: patent publication US9056067B2, “Pharmaceutical composition for enhancing immunity, and extract of Poria” (Sinphar Pharmaceutical Co., Ltd., priority 2003, dated 2015)

System: IgA
Assay: IgA secretion by spleen cells in vitro (LPS, ELISA) after oral administration
Format: in vivo, mice
Description: […] […] The control group was the mice feeding with an equal volume of saline (0.85% of NaCl). Mice were sacrificed at day five, and both the serum and spleen cells were collected. The sera were subsequently used to measure the concentration of IgG, IgM and IgA. The spleen cells were plated onto a 100 mm diameter culture plate and incubated at 37° C. for three hours. The non-adherent cells containing T-lymphocytes, B-lymphocytes and NK cells were collected and properly diluted as described in each assay.
The mouse to be sacrificed was cervical dislocated and sterilized with 70% ethanol. The cardiac punctuation was performed first to withdraw the blood. After the haemagglutination, the blood sample was subjected to centrifugation and the serum was collect. For isolation of spleen cells, the peritoneum was opened to remove the spleen. The fresh spleen was transferred to a culture plate containing 10 ml of RPMI-1640 culture medium. The spleen was then ground over a fine mesh to release the spleen cells. The spleen cells suspending in the medium were then removed and transferred to a 50-ml conical centrifuge tube. The tube was subjected to centrifugation at 1300 rpm for 10 min. The supernatant was discarded and the pellet was re-suspended in 1 ml of cold RBC lysing buffer containing EDTA-NH4Cl. The cells were incubated at room temperature for 10 min, followed by washing the cells three times with culture medium by centrifugation. The spleen cells were plated onto a 100 mm diameter culture plate and incubated at 37° C. for three hours. The non-adherent cells containing T-lymphocytes, B-lymphocytes and NK cells were collected and properly diluted as described in each assay.
An ELISA was performed in our study to measure the immunoglobulin concentration. Briefly, the spleen cells (5×10^5 cells/ml) were cultured in a medium containing RPMI 1640 supplemented with 10% fetal bovine serum (FBS), 2 mM L-glutamine, antibiotics and 5 μg/ml lipopolysaccharide (LPS; 1 μg/10^5 cells) for 5 days. LPS is a polyclonal activator of B lymphocyte. Culture spleen cell supernatants were collected at day 3, 4 and 5. IgA, IgG and IgM concentrations were measured using a sandwich ELISA technique.
The procedure for IgA assay was similar to that for IgG assay, except that the samples were 1/10^4 diluted and standard IgA ranged from 1 μg/ml to 0.0156 μg/ml were added (100 μl/well). The secondary antibody for the assay was HRP-conjugated goat anti-mouse IgA (1:1000 diluted; Zymed Laboratory, CA).

[1] = oral 10 mg/kg/day for four days
[2] = oral 20 mg/kg/day for four days

Row | SMILES | Effect on IgA secretion by spleen cells (in words) (oral) | IgA secretion by spleen cell, incubation day 3 (oral 5 mg/kg/day for four days) | IgA secretion by spleen cell, incubation day 4 (oral 5 mg/kg/day for four days) | IgA secretion by spleen cell, incubation day 5 (oral 5 mg/kg/day for four days) | IgA secretion by spleen cell, incubation day 3 [1] | IgA secretion by spleen cell, incubation day 4 [1] | IgA secretion by spleen cell, incubation day 5 [1] | IgA secretion by spleen cell, incubation day 3 [2] | IgA secretion by spleen cell, incubation day 4 [2] | IgA secretion by spleen cell, incubation day 5 [2] | Dose with increase in IgA secretion by spleen cells (oral, PCM-K1 at day 3 and day 5) [mg/kg/day]
1 | C=C(CC[C@@H](C(=O)O)[C@H]1[C@H](O)C[C@@]2(C)C3=CC[C@H]4C(C)(C)C(=O)CC[C@]4(C)C3=CC[C@]12C)C(C)C [K3] | significantly suppressed | 32.83 ± 7.00 | 27.37 ± 5.83 | 21.96 ± 4.17 | 26.57 ± 3.68 | 28.97 ± 5.95 | 18.87 ± 2.66 | 43.08 ± 4.05 | 43.45 ± 5.92 | 30.50 ± 3.60 | 
2 | C=C(CCC(C(=O)O)C1C(O)CC2(C)C3=CCC4C(C)(CCC(O)C4(C)C)C3=CCC12C)C(C)C (centres unmarked) [K4] |  | 55.56 ± 4.71 | 79.51 ± 3.74 | 106.69 ± 7.29 | 66.43 ± 5.26 | 95.39 ± 10.08 | 121.97 ± 12.69 | 119.59 ± 15.08 | 101.53 ± 25.08 | 133.16 ± 20.09 | ≥ 5
